We go through 19 molecules from US8981094B2, “Piperidine/piperazine derivatives” (Janssen Pharmaceutica N.V., priority 2007, dated 2015).

In one data set the target is T1, human DGAT1 (Homo sapiens, UniProt O75907).
T1 construct: FLAG (N); made in house; host or cells: SF9 insect cells (pFastBac baculovirus); total cell membranes
T1 sequence (O75907 1-488): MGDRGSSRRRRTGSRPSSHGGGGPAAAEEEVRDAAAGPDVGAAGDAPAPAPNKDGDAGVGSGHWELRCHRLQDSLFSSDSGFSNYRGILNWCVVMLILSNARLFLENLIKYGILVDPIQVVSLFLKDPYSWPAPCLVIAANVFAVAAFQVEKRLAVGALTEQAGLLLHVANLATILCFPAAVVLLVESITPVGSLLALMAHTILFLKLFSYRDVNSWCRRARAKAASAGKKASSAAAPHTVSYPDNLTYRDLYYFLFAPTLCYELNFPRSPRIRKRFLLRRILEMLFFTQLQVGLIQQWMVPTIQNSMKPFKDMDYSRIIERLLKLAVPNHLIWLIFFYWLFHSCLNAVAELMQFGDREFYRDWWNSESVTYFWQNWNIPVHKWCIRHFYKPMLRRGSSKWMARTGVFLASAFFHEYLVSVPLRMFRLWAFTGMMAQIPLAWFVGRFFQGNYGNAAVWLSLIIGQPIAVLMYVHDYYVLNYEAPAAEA
The data set is described as follows: Inhibition of DGAT1 activity, FlashPlate assay with DGAT1 membrane preparations and substrate micelles. The class given is biochemical. To be noted: pIC50 = -logIC50, IC50 values expressed in M. The essentials:
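FLAG-tagged human DGAT1 membranes (expressed in Sf9 cells) were incubated 120 min at 37° C. in 50 mM Tris-HCl pH 7.4 with 150 mM MgCl2, 1 mM EDTA, 0.2% BSA, 50 μM DAG micelles (PC/PS) and 8.4 μM [^3H]-oleoylCoA. The reaction was stopped with N-ethylmaleimide and read as FlashPlate radioluminescence. Responses were normalized to enzyme/no-enzyme controls to fit dose-response curves.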

Broadly, the IC50 is the concentration needed to halve the response being measured. A low value points to greater potency in that assay. In general, melting point refers to the temperature, or range, at which the solid turns liquid. As to `O=C(CCN1CCCCC1)Nc1ccc(N2CCN(C(=O)Nc3c(Cl)cccc3Cl)CC2)cc1` [Compound 138], the melting point is 241.1 °C. Besides, it took 1320 nM to reach half-maximal inhibition on human DGAT1 (IC50).

`CN(CC(=O)Nc1ccc(N2CCN(C(=O)Nc3c(Cl)cccc3Cl)CC2)cc1)C(=O)NC(C)(C)C` [Compound 165]: the melting point is 214 to 215 °C. The midpoint of inhibition against human DGAT1, the IC50, lay at 64.6 nM.

In turn, `CC(C)C(=O)N(C)CC(=O)Nc1ccc(N2CCN(C(=O)Nc3c(Cl)cccc3Cl)CC2)cc1` [Compound 166] returned a melting point of 232 to 234 °C. For the same molecule, the midpoint of inhibition against human DGAT1, the IC50, lay at 63.1 nM.

On to `CN(CC(=O)Nc1ccc(N2CCN(C(=O)Nc3c(Cl)cccc3Cl)CC2)cc1)C(=O)Cc1ccccc1` [Compound 171], for which the melting point was 253 to 255 °C. On human DGAT1, 28.2 nM corresponded to half-maximal inhibition (IC50).

In turn, `CS(=O)(=O)N1CCN(CCC(=O)Nc2ccc(N3CCN(C(=O)Nc4c(Cl)cccc4Cl)CC3)cc2)CC1` [Compound 172] returned a melting point of 250 to 252 °C. This molecule also had an IC50 against human DGAT1 of 603 nM.

On to `COc1ccc(CN(CCC(=O)Nc2ccc(N3CCN(C(=O)Nc4c(Cl)cccc4Cl)CC3)cc2)S(=O)(=O)c2ccccc2[N+](=O)[O-])cc1` [Compound 173], for which the melting point was 197 to 199 °C. The same molecule gave an IC50 on human DGAT1 of 34.7 nM.

In turn, `O=C(CCNCc1ccc(F)cc1)Nc1ccc(N2CCN(C(=O)Nc3c(Cl)cccc3Cl)CC2)cc1` [Compound 174] showed a melting point of 192 to 193 °C. For the same molecule, inhibition against human DGAT1 was half-maximal at 347 nM (IC50).

`O=C(CCN(Cc1ccc(F)cc1)S(=O)(=O)c1ccccc1[N+](=O)[O-])Nc1ccc(N2CCN(C(=O)Nc3c(Cl)cccc3Cl)CC2)cc1` [Compound 175] displayed a melting point of 215 to 216 °C. At human DGAT1, the IC50 is 24 nM.

The molecule `CC1CCCN1CCC(=O)Nc1ccc(N2CCN(C(=O)Nc3c(Cl)cccc3Cl)CC2)cc1` (centres unmarked) [Compound 176] yielded a melting point of 232 to 233 °C. This molecule also gave an IC50 against human DGAT1 of 6170 nM.

As to `COc1ccc(CNCC(=O)Nc2ccc(N3CCN(C(=O)Nc4c(Cl)cccc4Cl)CC3)cc2)cc1` [Compound 177], the melting point was in the range of 128 to 129 °C. In addition, on human DGAT1, the IC50 was 245 nM.

Consider `O=C(CNCc1ccc(Cl)cc1)Nc1ccc(N2CCN(C(=O)Nc3c(Cl)cccc3Cl)CC2)cc1` [Compound 178], for which the melting point was in the range of 183 to 184 °C. In addition, the IC50 on human DGAT1 is 75.9 nM.

Consider `CC1CCCN1CC(=O)Nc1ccc(N2CCN(C(=O)Nc3c(Cl)cccc3Cl)CC2)cc1` (centres unmarked) [Compound 179], for which the melting point lay within 220 to 222 °C. Moreover, the IC50 at human DGAT1 was 1070 nM.

Regarding `O=C(CNC1CCCCC1)Nc1ccc(N2CCN(C(=O)Nc3c(Cl)cccc3Cl)CC2)cc1` [Compound 180], the melting point was 185 to 187 °C. In addition, the IC50 on human DGAT1 is 407 nM.

Turning to `Cc1ccc(CNCC(=O)Nc2ccc(N3CCN(C(=O)Nc4c(Cl)cccc4Cl)CC3)cc2)c(C)c1` [Compound 181], the melting point lay in the range of 163 to 165 °C. Also, 75.9 nM corresponded to half-maximal inhibition against human DGAT1 (IC50).

With `C=CCN(CCC(=O)Nc1ccc(N2CCN(C(=O)Nc3c(Cl)cccc3Cl)CC2)cc1)c1ccc(C)cc1C` [Compound 183], the melting point is 226 to 227 °C. Moreover, the IC50 against human DGAT1 is 12.6 nM.

On to `Cc1ccc(NCC(=O)Nc2ccc(N3CCN(C(=O)Nc4c(Cl)cc(O)cc4Cl)CC3)cc2)c(C)c1` [Compound 185], for which the melting point lay within 202 to 203 °C. On human DGAT1, this molecule gave an IC50 of 3.72 nM.

`C=CCN(CC(=O)Nc1ccc(N2CCN(C(=O)Nc3c(Cl)cc(OC)cc3OC)CC2)cc1)c1ccc(C)cc1C` [Compound 186] yielded a melting point of 181 to 182 °C. For the same molecule, the IC50 against human DGAT1 was 13.8 nM.

Turning to `COc1cc(Cl)c(NC(=O)N2CCN(c3ccc(NC(=O)CCCc4ccccc4)cc3)CC2)c(OC)c1` [Compound 188], the melting point lay in the range of 208 to 210 °C. For the same molecule, on human DGAT1, the IC50 is 74.1 nM.

In the case of `O=C(CCCc1ccccc1)Nc1ccc(N2CCN(C(=S)Nc3c(Cl)cccc3Cl)CC2)cc1` [Compound 189], the melting point was found to be 238.7 °C. At human DGAT1, this molecule showed an IC50 of 12 nM.
